Data from article PMC9764287, “Multivalent Fucosides Targeting β-Propeller Lectins from Lung Pathogens with Promising Anti-Adhesive Properties” (ACS Chemical Biology, 2022).
“And” between values parts separate entries of the source, which are not always exact repeats. Equal values may be shown once. Read-outs that look alike come from different tables or passages of the source.

Legend:
FleA [1] = target: T1, FleA (Aspergillus fumigatus, UniProt Q4WW81); design: method as in PMID 25760594; conditions: SPR experiment; read-out: Kd of binding for FleA; cited from earlier work
T1 construct: 6xHis (TEV-cleavable) (N, cleaved yes); made in house
T1 sequence (Q4WW81 whole entry): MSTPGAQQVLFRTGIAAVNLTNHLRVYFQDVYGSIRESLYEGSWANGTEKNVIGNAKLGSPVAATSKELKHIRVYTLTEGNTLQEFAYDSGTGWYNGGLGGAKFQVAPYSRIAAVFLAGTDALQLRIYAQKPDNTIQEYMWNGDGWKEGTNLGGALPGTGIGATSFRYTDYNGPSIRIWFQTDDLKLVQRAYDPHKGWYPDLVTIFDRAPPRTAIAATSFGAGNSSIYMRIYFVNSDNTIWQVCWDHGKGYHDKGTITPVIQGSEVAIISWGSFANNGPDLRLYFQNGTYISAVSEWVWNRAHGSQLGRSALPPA

FleA [2] = target: T1, FleA; assay: Isothermal titration calorimetry (ITC); format: binding; conditions: for Kd: 20 mM Tris, 100 mM NaCl, pH 8.0; for N stoichiometry FleA ITC: ratio of compound per FleA monomer (six binding sites); for -TΔS (kJ/mol) FleA binding / ΔH (kJ/mol) FleA binding: Table S1, ITC 25 °C
Description: (§1) Due to the time-consuming measurements and the high quantity of protein necessary in some techniques, we selected only the four inhibitors with the largest size (compounds with PEGn=4 and hPG-20) for further biophysical analysis. More in-depth studies were continued by isothermal titration calorimetry (ITC) and bio-layer interferometry (BLI), which confirmed the trends previously seen by FP (Table 2). In the ITC experiments, the fungal lectins bound their monovalent reference with a stoichiometry (N) value around […], which is consistent with the number of high-affinity binding sites per monomer. With the value close to […] obtained for BambL, the reference experiments are indicative of active recombinant proteins and correlate well with previous findings in the literature.[39],[41] […] This calls for a likely mixed chelate-aggregative binding, whose precise architecture cannot be determined based solely on the compound/protein ratio.
(§2) 1.2 I sotherm al ti trati on c al ori m etry
(§3) Protein targets were pl ace d i n t he sample cell at concentrations ranging between 50 an d 8.5 μM at 25 °C. […]
Ta b le S1. Microcalorimetry data relative to Fl e A binding.

BambL [3] = target: T2, BambL (Burkholderia ambifaria, UniProt Q0B4G1); assay: Isothermal titration calorimetry (ITC); format: binding; conditions: for Kd: 20 mM Tris, 100 mM NaCl, pH 8.0; for -TΔS (kJ/mol) BambL binding / ΔH (kJ/mol) BambL binding / N BambL binding (Table S3): Table S3, ITC 25 °C; for N BambL binding (Table S3): as printed in SI, one third of the per-trimer N of Table 2
T2 sequence (Q0B4G1 1-87): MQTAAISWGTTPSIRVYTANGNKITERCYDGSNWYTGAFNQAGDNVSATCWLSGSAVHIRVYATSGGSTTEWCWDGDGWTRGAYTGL
Description: as §1, §2, §3
Ta b le S3. Microcalorimetry data relative to B am bL binding.

BambL [4] = target: T2, BambL; assay: Bio-layer interferometry (BLI), biotinylated lectin on streptavidin sensor; format: binding; conditions: read-out: Kobs (nM) BambL BLI; 25 °C; protein immobilized
Description: (§4) Applying different techniques to study the mechanism of multivalent binding is always advisable to better understand the process at a molecular level.[44] BLI is a biophysical technique where the target protein can be immobilized on the surface of the sensor, so problems related to aggregation should be eliminated. This technology has in fact been applied to the study of lectin-multivalent glycoconjugate interactions in a reliable, low-cost, and fast way.[45] […] A discrepancy of this nature is not too surprising considering that in the BLI experiment, one of the binding partners is immobilized, so its Kd’s might be better labeled as Kobs. Different techniques measure inherently different properties. It has been pointed out in a recent publication that drastically different outcomes can be obtained from solution to surface experimental approaches and that these variations are highly dependent on the accessibility of the binding motif.[46] The arrangement of glycans and the linker used for immobilization have shown to influence affinity on the glycan array setting. Therefore, it is likely that also the arrangement of a protein on the surface can have a similar effect when the setting is reversed.[46],[47] The difference in affinities between ITC and BLI for the fungal versus the bacterial lectins may relate to their orientation on the surface. The proteins were immobilized to the surface of a streptavidin-coated sensor through biotinylation of their lysine residues. BambL has only one lysine per monomer, opposite to the binding surface, while FleA and SapL1 have several, some of which close to the binding sites. It is plausible that this would influence the binding of the lectins to the sensor and the exposure of their sites. […] In contrast, all binding sites and modalities are accessible in solution during ITC.
(§5) 1.4 B i ol ayer i n terferom etry
(§6) The mixture was incubate d for 30 minutes with stirring. […] Biotinylated protein at 100nM concentrations were loaded on the sensor. […]

SapL1 [5] = target: T3, SapL1 (Scedosporium apiospermum, UniProt A0A084FYP2); assay: as above; format: binding; conditions: read-out: Kobs (nM) SapL1 BLI; 25 °C; protein immobilized
T3 sequence (A0A084FYP2 entry or part of it): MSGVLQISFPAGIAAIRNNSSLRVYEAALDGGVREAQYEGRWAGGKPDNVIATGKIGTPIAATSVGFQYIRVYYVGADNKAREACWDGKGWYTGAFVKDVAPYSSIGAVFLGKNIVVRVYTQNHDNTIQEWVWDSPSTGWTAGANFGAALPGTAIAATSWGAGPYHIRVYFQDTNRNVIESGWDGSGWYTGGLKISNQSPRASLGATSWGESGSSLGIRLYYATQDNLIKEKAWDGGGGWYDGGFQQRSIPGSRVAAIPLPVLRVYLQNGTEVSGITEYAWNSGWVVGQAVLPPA
Description: as §4, §5, §6

FleA [6] = target: T1, FleA; assay: as above; format: binding; conditions: 25 °C; protein immobilized; read-out: Kobs (nM) FleA BLI
Description: as §4, §5, §6

SapL1 [7] = target: T3, SapL1; assay: Isothermal titration calorimetry (ITC); format: binding; conditions: for N stoichiometry SapL1 ITC: ratio of compound per SapL1 monomer (six binding sites); for -TΔS (kJ/mol) SapL1 binding / ΔH (kJ/mol) SapL1 binding: Table S2, ITC 25 °C
Description: as §1, §2, §3
Ta b le S2. Microcalorimetry data relative to S apL1 binding. […]

BambL [8] = target: T2, BambL; assay: Competitive fluorescence polarization (FP) assay; format: binding; conditions: Fuc-FITC probe 6 nM, protein 100 nM, average over two independent experiments, read-out: IC50 (nM) ± SD BambL
Description: (§7) With the targeted lectins in hand, we could screen the inhibitory properties of the synthesized compounds by a competitive binding assay based on fluorescence polarization (FP). […] In general, results confirmed the power of multivalency as IC50 values improved from the micromolar range for the monosaccharide reference to the nanomolar range for the multivalent counterparts (Table 1).
(§8) 1.1 F l uoresc en c e pol ari z ati on c om peti ti ve assay
(§9) The fluorescen t ligan d Fu c -FI TC (F i g ur e S 1 ) w as pr e par e d f r om com poun d 2a followin g a protocol reported in literature.1 T y pi cal l y , a s t ock s ol uti on of pr ote i n (f i n al con ce n tr ati on 100 n M) an d Fu c -FI TC (final concentration 6 n M) w e r e adde d to 3 -f ol d serial dilution s of testin g compoun ds in dupl i cat e s on a bl ack 9 6 well microtiter plate (CO S T A R TM 96) . […] The starting concentration for the monovalent com poun d w as 3 mM an d 5 -fold dilution s were used in this case. All compon en ts were dissolved in the same buffer (20 mM Tris, 100 mM N aCl , pH 8.0). After addition of the reagents, the microtiter plates were s hak e d f or 1 h at room temperature i n t he dar k . […] A fluorescen ce in ten sity spectral scan of the multivalent compounds alone was also performed to confirm no interference with the analysis. […] The point of inflection was used to determine the IC50 value of each experiment. […]
(§10) Fi gu re S1 . The structure of the fluorescent probe Fu c -FI TC.

SapL1 [9] = target: T3, SapL1; assay: Competitive fluorescence polarization (FP) assay; format: binding; conditions: read-out: IC50 (nM) ± SD SapL1, Fuc-FITC probe 6 nM, protein 100 nM, average over two independent experiments
Description: as §7, §8, §9, §10

FleA [10] = target: T1, FleA; assay: Competitive fluorescence polarization (FP) assay; format: binding; conditions: Fuc-FITC probe 6 nM, protein 100 nM, average over two independent experiments, read-out: IC50 (nM) ± SD FleA
Description: as §7, §8, §9, §10

[11] = system: adhesion of Af293.1 spores to A549 cells; assay: Adhesion assay of A. fumigatus conidia to lung epithelial cells; format: cell-based, Aspergillus fumigatus
Method: In our adhesion assay, A549 cells were cultured in a well-plate until a confluent layer was obtained and then challenged with A. fumigatus conidia in the presence or absence of FleA inhibitors. After incubation and washing to remove unbound spores from the cell layer, imaging was performed by confocal microscopy (Figure 4). The detection of fungi was facilitated by the availability of Af293.1, a strain originally derived from a clinical isolate and genetically modified to constitutively express red fluorescent protein.[53] Cell nuclei were stained with Hoechst fluorescent dye for visualization.[54] Cell and spore counts were calculated by ImageJ software and used to express adhesion efficiencies.
Figure 5 Adhesion of Af293.1 to A459. The black bars refer to the conditions where compounds and spores were pre-incubated 1 h prior infection. The white-striped bars refer to the conditions where compounds were added 1 h after infection. *Significant difference to the control (chi-square test, followed by Bonferroni’s multiple comparison test).
[…] Unbound conidia were removed carefully by washin g 4 times with m e di a (D ME M + 10% F BS). […] Fluorescence emission of Hoechst was de te cte d us i n g the 400- 600 nm spectral band and red fluorescence emission of R F P was detected with the 560- 700 n m s pe ctr al ban d. […]

FleA, SapL1, and BambL = target: FleA, SapL1, and BambL; design: method as in PMID 24340081, PMID 34373510, PMID 22170069; conditions: range over FleA, read-out: Kd of α-methyl fucose; cited from earlier work

## C[C@@H]1OC(O)[C@@H](O)[C@H](O)[C@@H]1O (stereo partly drawn) [L-Fuc]
FleA [1]
  Kd: 209000 nM

## CC(=O)N[C@H]1C(O)O[C@H](CO)[C@@H](O[C@@H]2O[C@@H](C)[C@@H](O)[C@@H](O)[C@@H]2O)[C@@H]1O (stereo partly shown) [αFuc(1–4)GlcNAc]
FleA [1]
  Kd: 63000 nM

## C[C@@H]1O[C@@H](OCCN=[N+]=[N-])[C@@H](O)[C@H](O)[C@@H]1O [2a]
FleA [2]; 25 °C
  Kd: 97600 ± 300 nM
  N stoichiometry FleA ITC: 4.1 ± 0.02
FleA [2]
  -TΔS (kJ/mol) FleA binding: 16 ± 4 kJ/mol
  ΔH (kJ/mol) FleA binding: -39 ± 4 kJ/mol
BambL [3]; 25 °C
  Kd: 2140 ± 80 nM
BambL [3]
  -TΔS (kJ/mol) BambL binding: 17 ± 1 kJ/mol
  ΔH (kJ/mol) BambL binding: -50 ± 1 kJ/mol
  N BambL binding (Table S3): 1.81 ± 0.01

## C[C@@H]1O[C@@H](OCCNC(=O)CCOCCOCCOCCOCCNC(=O)Cc2ccc(SCc3c(CSc4ccc(CC(=O)NCCOCCOCCOCCOCCC(=O)NCCO[C@@H]5O[C@@H](C)[C@@H](O)[C@@H](O)[C@@H]5O)cc4)c(CSc4ccc(CC(=O)NCCOCCOCCOCCOCCC(=O)NCCO[C@@H]5O[C@@H](C)[C@@H](O)[C@@H](O)[C@@H]5O)cc4)c(CSc4ccc(CC(=O)NCCOCCOCCOCCOCCC(=O)NCCO[C@@H]5O[C@@H](C)[C@@H](O)[C@@H](O)[C@@H]5O)cc4)c(CSc4ccc(CC(=O)NCCOCCOCCOCCOCCC(=O)NCCO[C@@H]5O[C@@H](C)[C@@H](O)[C@@H](O)[C@@H]5O)cc4)c3CSc3ccc(CC(=O)NCCOCCOCCOCCOCCC(=O)NCCO[C@@H]4O[C@@H](C)[C@@H](O)[C@@H](O)[C@@H]4O)cc3)cc2)[C@@H](O)[C@H](O)[C@@H]1O [hexa-4]
BambL [4]
  Kd: 1.6 ± 0.1 nM
SapL1 [5]
  Kd: 1.2 ± 0.2 nM
FleA [6]
  Kd: 4.1 ± 0.1 nM
FleA [2]; 25 °C
  β affinity enhancement (Kd,mono/Kd,multi) FleA ITC: 849
  Kd: 115 ± 4 nM
  N stoichiometry FleA ITC: 0.8 ± 0.02 and 0.8
FleA [2]; 25 °C, v = valency
  β/v affinity enhancement per single sugar FleA ITC: 142
FleA [2]
  -TΔS (kJ/mol) FleA binding: 206 ± 6 kJ/mol
  ΔH (kJ/mol) FleA binding: -246 ± 6 kJ/mol
SapL1 [7]; 25 °C
  β affinity enhancement (Kd,mono/Kd,multi) SapL1 ITC: 2735
  N stoichiometry SapL1 ITC: 0.72 ± 0.02 and 0.72
SapL1 [7]; 25 °C, v = valency
  β/v affinity enhancement per single sugar SapL1 ITC: 456
SapL1 [7]
  -TΔS (kJ/mol) SapL1 binding: 155 ± 12 kJ/mol
  ΔH (kJ/mol) SapL1 binding: -199 ± 13 kJ/mol
SapL1 [7]; read-out: Kd (nM) SapL1 ITC, 25 °C, 20 mM Tris, 100 mM NaCl, pH 8.0
  Kd: 25 nM and 24.9 nM
BambL [3]; 25 °C
  β affinity enhancement (Kd,mono/Kd,multi) BambL ITC: 455
  Kd: 4.7 ± 0.9 nM
BambL [3]; 25 °C, ratio of compound per BambL trimer (six binding sites)
  N stoichiometry BambL ITC: 1.05
BambL [3]; 25 °C, v = valency
  β/v affinity enhancement per single sugar BambL ITC: 76
BambL [3]
  -TΔS (kJ/mol) BambL binding: 249 ± 10 kJ/mol
  ΔH (kJ/mol) BambL binding: -296 ± 9 kJ/mol
  N BambL binding (Table S3): 0.35 ± 0.01
BambL [8]
  IC50: 31 ± 3 nM
SapL1 [9]
  IC50: 43 ± 6 nM
FleA [10]
  IC50: 148 ± 6 nM

## CO[C@@H]1O[C@@H](C)[C@@H](O)[C@@H](O)[C@@H]1O [α-Me-Fuc, α-methyl fucose, reference compound]
SapL1 [7]; 25 °C
  N stoichiometry SapL1 ITC: 3.52 ± 0.13
SapL1 [7]
  -TΔS (kJ/mol) SapL1 binding: 27 ± 2 kJ/mol
  ΔH (kJ/mol) SapL1 binding: -63 ± 11 kJ/mol
[11]; 0.1 mM, spores preincubated with compound, MOI 2, Figure S3
  anti-adhesive effect: ineffective
[11]; control experiment, preincubation
  concentration needed to elicit any measurable anti-adhesive properties: 1 mM
BambL [8]
  IC50: 1400 ± 200 nM
FleA [10]
  IC50: 111000 nM
FleA, SapL1, and BambL
  Kd: 1000 to 200000 nM
